According to patent US11186577B2, “Vasopressin receptor antagonists and products and methods related thereto” (BlackThorn Therapeutics, Inc., priority 2017, dated 2021):
Where two headings read alike, the source gives them in different places.

Key:
Type in all cases: in vitro ADME
MDR1-MDCK cells = experiment: MDR1-MDCK effective efflux assay (Transwell, 10 μM, 1 hour), MDR1-MDCK cells; conditions: for Papp AB MDR1: MDR1-MDCK cells, apical to basolateral (A>B), 10 μM, 1 hour; for MDR1 EER / MDR1 ER: MDCK-MDR1
In short: (§1)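 Wild-type and MDR1-MDCK monolayers cultured 3 days were dosed with compound at 10 μM (0.1% DMSO) in HBSS/25 mM HEPES pH 7.4, in both A>B and B>A directions, for 1 h at 37 °C. Samples were quantified by LC-MS/MS to give Papp and efflux ratio. Effective efflux ratio = ER(MDR1-MDCK)/ER(wild-type); Lucifer Yellow checked monolayer integrity.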

[1] = system: wild-type (WT) MDCK cells; experiment: MDR1-MDCK effective efflux assay (Transwell, 10 μM, 1 hour), wild-type MDCK cells; conditions: for Papp AB WT: wild-type MDCK cells, apical to basolateral (A>B), 10 μM, 1 hour; for WT ER: MDCK
In short: as §1

MDR1 (P-glycoprotein) = experiment: MDR1-MDCK effective efflux assay (Transwell, 10 μM, 1 hour), MDR1-MDCK cells; conditions: dog
In short: as §1

[2] = MDR1-MDCK effective efflux assay (Transwell, 10 μM, 1 hour), wild-type MDCK cells; conditions: dog, MDCK
In short: as §1

[3] = MDCK-MDR1, pH 7.4, Papp AB MDR1
[4] = MDCK-MDR1, pH 7.4, MDR1-MDCK cells, apical to basolateral (A>B), 10 μM, 1 hour, read-out: Papp AB MDR1
[5] = pH 7.4, wild-type MDCK cells, apical to basolateral (A>B), 10 μM, 1 hour, read-out: Papp AB WT

Structure (SMILES)	Papp AB MDR1 (MDR1-MDCK cells)	Papp AB WT [1]	Papp A→B at 1 h, 10 μM (MDR1 (P-glycoprotein); [4])	Papp A→B at 1 h, 10 μM [2, 5]	further results
COC(=O)N1Cc2cc(Cl)ccc2-n2c(C3CC4(C3)CN(c3cnccn3)C4)nnc2C1C (single isomer, unassigned) [Cpd 165A]	+ ((+) denotes an apparent permeability <7 (10^-6 cm/sec))	++++ ((++++) denotes >20 (10^-6 cm/sec))	–	–	–
CC(C)OC(=O)N1Cc2cc(Cl)ccc2-n2c(C3CC4(C3)CN(c3ncccn3)C4)nnc2C1C (single isomer, unassigned) [Cpd 167A]	++++ ((++++) denotes >20 (10^-6 cm/sec))	++++ ((++++) denotes >20 (10^-6 cm/sec))	–	–	–
CCOC(=O)N1Cc2cc(Cl)ccc2-n2c(C3CC4(C3)CN(c3ncccn3)C4)nnc2C1C (single isomer, unassigned) [Cpd 168A]	++++ ((++++) denotes >20 (10^-6 cm/sec))	++++ ((++++) denotes >20 (10^-6 cm/sec))	–	–	–
CCOC(=O)N1Cc2cc(Cl)ccc2-n2c(C3CC4(C3)CN(c3ccc(F)cn3)C4)nnc2C1C (single isomer, unassigned) [Cpd 169A]	++++ ((++++) denotes >20 (10^-6 cm/sec))	++++ ((++++) denotes >20 (10^-6 cm/sec))	–	–	–
CC1c2nnc(C3CC4(C3)CN(c3ncccn3)C4)n2-c2ccc(Cl)cc2CN1C(=O)OC1CC1 (single isomer, unassigned) [Cpd 171A]	+ ((+) denotes an apparent permeability <7 (10^-6 cm/sec))	++++ ((++++) denotes >20 (10^-6 cm/sec))	–	–	–
CC1c2nnc(C3CC4(C3)CN(c3ccc(F)cn3)C4)n2-c2ccc(Cl)cc2CN1C(=O)C1(F)CC1 (single isomer, unassigned) [Cpd 174A]	++++ ((++++) denotes >20 (10^-6 cm/sec))	++++ ((++++) denotes >20 (10^-6 cm/sec))	–	–	–
CC1c2nnc(C3CC4(C3)CN(c3ccc(F)cn3)C4)n2-c2ccc(Cl)cc2CN1C(=O)C(C)(C)F (single isomer, unassigned) [Cpd 178A]	++++ ((++++) denotes >20 (10^-6 cm/sec))	++++ ((++++) denotes >20 (10^-6 cm/sec))	–	–	–
CC1c2nnc(C3CC4(C3)CN(c3ccccn3)C4)n2-c2ccc(Cl)cc2CN1C(=O)C1(F)CC1 (single isomer, unassigned) [Cpd 181A]	++++ ((++++) denotes >20 (10^-6 cm/sec))	++++ ((++++) denotes >20 (10^-6 cm/sec))	–	–	–
CC1c2nnc(C3CC4(C3)CN(c3ccc(F)cn3)C4)n2-c2ccc(Cl)cc2CN1C(=O)OC1CC1 (single isomer, unassigned) [Cpd 191A]	++++ ((++++) denotes >20 (10^-6 cm/sec))	++++ ((++++) denotes >20 (10^-6 cm/sec))	–	–	–
CC1c2nnc(C3CC4(C3)CN(c3ncc(F)cn3)C4)n2-c2ccc(Cl)cc2CN1C(=O)OC1CC1 (single isomer, unassigned) [Cpd 192A]	++++ ((++++) denotes >20 (10^-6 cm/sec))	++++ ((++++) denotes >20 (10^-6 cm/sec))	–	–	–
CC(C)OC(=O)N1Cc2cc(Cl)ccc2-n2c(C3CC4(C3)CN(c3ncc(F)cn3)C4)nnc2C1C (single isomer, unassigned) [Cpd 201A]	++++ ((++++) denotes >20 (10^-6 cm/sec))	++++ ((++++) denotes >20 (10^-6 cm/sec))	–	–	–
CC1c2nnc(C3CC4(C3)CN(c3ncccn3)C4)n2-c2ccc(Cl)cc2CN1C(=O)OC(CF)CF (single isomer, unassigned) [Cpd 202A]	+ ((+) denotes an apparent permeability <7 (10^-6 cm/sec))	++++ ((++++) denotes >20 (10^-6 cm/sec))	–	–	–
CN1Cc2cc(Cl)ccc2-n2c(nnc2C2CC3(C2)CN(c2ccc(F)cn2)C3)C1 [compound 1, 8-chloro-1-(2-(5-fluoropyridin-2-yl)-2-azaspiro[3.3]heptan-6-yl)-5-methyl-5,6-dihydro-4H-benzo[f][1,2,4]triazolo[4,3-a][1,4]diazepine]	–	–	–	–	Papp A→B at 1 h, 10 μM (MDR1 (P-glycoprotein); [3]): 7 to 10 ×10⁻⁶ cm/s; MDR1 EER (MDR1-MDCK cells): +; MDR1 ER (MDR1-MDCK cells): +; Papp A→B at 1 h, 10 μM ([2]; pH 7.4, Papp AB WT): > 20 ×10⁻⁶ cm/s; WT ER [1]: ++
CN1Cc2cc(Cl)ccc2-n2c(nnc2C2CC3(C2)CN(c2cccc(F)n2)C3)C1 [compound 8]	–	–	–	–	Papp A→B at 1 h, 10 μM (MDR1 (P-glycoprotein); [3]): > 20 ×10⁻⁶ cm/s; MDR1 EER (MDR1-MDCK cells): +++; MDR1 ER (MDR1-MDCK cells): +++; Papp A→B at 1 h, 10 μM ([2]; pH 7.4, Papp AB WT): > 20 ×10⁻⁶ cm/s; WT ER [1]: ++++
FC(F)CN1Cc2cc(Cl)ccc2-n2c(nnc2C2CC3(C2)CN(c2ccccn2)C3)C1 [compound 52]	–	–	10 to 20 ×10⁻⁶ cm/s	> 20 ×10⁻⁶ cm/s	–
Clc1ccc2c(c1)CN(C1CC1)Cc1nnc(C3CC4(C3)CN(c3ccccn3)C4)n1-2 [compound 56]	–	–	> 20 ×10⁻⁶ cm/s	> 20 ×10⁻⁶ cm/s	–
Clc1ccc2c(c1)CN(C1COC1)Cc1nnc(C3CC4(C3)CN(c3ccccn3)C4)n1-2 [compound 57, 8-chloro-5-(oxetan-3-yl)-1-(2-(pyridin-2-yl)-2-azaspiro[3.3]heptan-6-yl)-5,6-dihydro-4H-benzo[f][1,2,4]triazolo[4,3-a][1,4]diazepine]	–	–	–	–	Papp A→B at 1 h, 10 μM (MDR1 (P-glycoprotein); [3]): < 7 ×10⁻⁶ cm/s; MDR1 EER (MDR1-MDCK cells): +; MDR1 ER (MDR1-MDCK cells): +; Papp A→B at 1 h, 10 μM ([2]; pH 7.4, Papp AB WT): > 20 ×10⁻⁶ cm/s; WT ER [1]: +++
FCCN1Cc2cc(Cl)ccc2-n2c(nnc2C2CC3(C2)CN(c2ccccn2)C3)C1 [compound 59]	–	–	7 to 10 ×10⁻⁶ cm/s	> 20 ×10⁻⁶ cm/s	–

Structure (SMILES)	Papp AB MDR1 (MDR1-MDCK cells)	Papp AB WT [1]	Papp A→B at 1 h, 10 μM (MDR1 (P-glycoprotein); [4])	Papp A→B at 1 h, 10 μM [2, 5]	further results
COC(=O)N1Cc2cc(Cl)ccc2-n2c(nnc2C2CC3(C2)CN(c2ccc(F)cn2)C3)C1 [compound 61]	–	–	10 to 20 ×10⁻⁶ cm/s	> 20 ×10⁻⁶ cm/s	–
CC(C)C(=O)N1Cc2cc(Cl)ccc2-n2c(nnc2C2CC3(C2)CN(c2ccc(F)cn2)C3)C1 [compound 63]	–	–	< 7 ×10⁻⁶ cm/s	> 20 ×10⁻⁶ cm/s	–
CC(=O)N1Cc2cc(Cl)ccc2-n2c(nnc2C2CC3(C2)CN(c2ccc(F)cn2)C3)C1 [compound 64]	–	–	< 7 ×10⁻⁶ cm/s	10 to 20 ×10⁻⁶ cm/s	–
CCC(=O)N1Cc2cc(Cl)ccc2-n2c(nnc2C2CC3(C2)CN(c2ccccn2)C3)C1 [compound 67]	–	–	–	–	Papp A→B at 1 h, 10 μM (MDR1 (P-glycoprotein); [3]): < 7 ×10⁻⁶ cm/s; MDR1 EER (MDR1-MDCK cells): +; MDR1 ER (MDR1-MDCK cells): +; Papp A→B at 1 h, 10 μM ([2]; pH 7.4, Papp AB WT): > 20 ×10⁻⁶ cm/s; WT ER [1]: +++
CCOC(=O)N1Cc2cc(Cl)ccc2-n2c(nnc2C2CC3(C2)CN(c2ccc(F)cn2)C3)C1 [compound 69]	–	–	> 20 ×10⁻⁶ cm/s	> 20 ×10⁻⁶ cm/s	–
COC(=O)N1Cc2cc(Cl)ccc2-n2c(nnc2C2CC3(C2)CN(c2ccccn2)C3)C1 [compound 70]	–	–	10 to 20 ×10⁻⁶ cm/s	> 20 ×10⁻⁶ cm/s	–
CCC(=O)N1Cc2cc(Cl)ccc2-n2c(nnc2C2CC3(C2)CN(c2ccc(F)cn2)C3)C1 [compound 72]	–	–	< 7 ×10⁻⁶ cm/s	> 20 ×10⁻⁶ cm/s	–
CC(CF)OC(=O)N1Cc2cc(Cl)ccc2-n2c(nnc2C2CC3(C2)CN(c2ccc(F)cn2)C3)C1 (stereo not shown) [compound 78]	–	–	> 20 ×10⁻⁶ cm/s	> 20 ×10⁻⁶ cm/s	–
O=C(OC(CF)CF)N1Cc2cc(Cl)ccc2-n2c(nnc2C2CC3(C2)CN(c2ccc(F)cn2)C3)C1 [compound 79]	–	–	10 to 20 ×10⁻⁶ cm/s	> 20 ×10⁻⁶ cm/s	–
O=C(OC1CC1)N1Cc2cc(Cl)ccc2-n2c(nnc2C2CC3(C2)CN(c2ccc(F)cn2)C3)C1 [compound 90]	–	–	> 20 ×10⁻⁶ cm/s	> 20 ×10⁻⁶ cm/s	–
O=C(C(F)F)N1Cc2cc(Cl)ccc2-n2c(nnc2C2CC3(C2)CN(c2ccccn2)C3)C1 [compound 122]	–	–	7 to 10 ×10⁻⁶ cm/s	> 20 ×10⁻⁶ cm/s	–
COC(=O)N1Cc2cc(Cl)ccc2-n2c(C3CC4(C3)CN(c3cnccn3)C4)nnc2C1C (stereo not shown) [compound 165]	–	–	7 to 10 ×10⁻⁶ cm/s	> 20 ×10⁻⁶ cm/s	–
CCOC(=O)N1Cc2cc(Cl)ccc2-n2c(C3CC4(C3)CN(c3ccc(F)cn3)C4)nnc2C1C (stereo not shown) [compound 169]	–	–	> 20 ×10⁻⁶ cm/s	> 20 ×10⁻⁶ cm/s	–
CC1c2nnc(C3CC4(C3)CN(c3ncc(F)cn3)C4)n2-c2ccc(Cl)cc2CN1C(=O)OC1(C)CC1 (stereo not shown) [compound 173]	–	–	> 20 ×10⁻⁶ cm/s	> 20 ×10⁻⁶ cm/s	–
CC1c2nnc(C3CC4(C3)CN(c3ccc(F)cn3)C4)n2-c2ccc(Cl)cc2CN1C(=O)C1(F)CC1 (stereo not shown) [compound 174]	–	–	> 20 ×10⁻⁶ cm/s	> 20 ×10⁻⁶ cm/s	–
COC(=O)N1Cc2cc(Cl)ccc2-n2c(C3CC4(C3)CN(c3cccc(C)n3)C4)nnc2C1C (stereo not shown) [compound 180]	–	–	> 20 ×10⁻⁶ cm/s	> 20 ×10⁻⁶ cm/s	–
COC(=O)N1Cc2cc(Cl)ccc2-n2c(C3CC4(C3)CN(c3ncccc3F)C4)nnc2C1C (stereo not shown) [compound 182]	–	–	> 20 ×10⁻⁶ cm/s	> 20 ×10⁻⁶ cm/s	–
